Data from patent US6914045B2, “Glycopeptide antibiotics” (Wyeth Holdings Corporation, priority 2001, dated 2005).
≈ marks a conversion by molar mass, not a printed value. Like-named read-outs stand apart in the source and are kept apart here.

Experiments:
Experiment in all cases: in vitro antibacterial evaluation, MIC by broth dilution
Assay type in all cases: cell-based
Enterococcus sp. = conditions: broth dilution, 18 hours at 35° C.
Procedure: (§1) Methods for in vitro Antibacterial Evaluation (Table 1)
(§2) The minimum inhibitory concentration (MIC), the lowest concentration of the antibiotic which inhibits growth of the test organism, is determined by the broth dilution method using Muller-Hinton II […] (Baltimore Biological Laboratories) following the recommendations of the National Committee for Clinical Laboratory Standards [Methods for dilution antimicrobial susceptibility tests for bacteria that grow aerobically, approved standard M7-A2, National Committee for Clinical Laboratory Standards, Villanova, Pa.].
(§3) An inoculum level of 5×10^5 CFU/mL, and a range of antibiotic concentrations (64-0.06 μg/mL) is used. […] The test organisms include a spectrum of Gram-positive bacteria comprised of Staphylococcus sp., Streptococcus sp. and Enterococcus sp. These organisms include recent clinical isolates that are resistant to methicillin, penicillin and/or vancomycin.

Staphylococcus sp. = conditions: broth dilution, 18 hours at 35° C.
Procedure: as §1, §2, §3

Streptococcus sp. = conditions: broth dilution, 18 hours at 35° C.
Procedure: as §1, §2, §3

Escherichia coli = conditions: Escherichia coli, broth dilution, 18 hours at 35° C.
Summary of the method: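 Broth dilution MIC per NCCLS M7-A2 in Mueller-Hinton II medium, inoculum 5×10^5 CFU/mL, antibiotic range 64-0.06 μg/mL. MIC taken as lowest concentration inhibiting growth.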

In the case of `Cc1cccc(Oc2ccc(-c3nc4cc(C[C@@H]5NC(=O)[C@H](C(C)c6ccccc6)NC(=O)CNC(=O)[C@H](CO)NC(=O)[C@H](C(O)C6CNC(=N)N6)NC(=O)[C@H](C(O)C6CNC(=N)N6)NC5=O)ccc4o3)cc2)c1` (stereo partly drawn) [Example 41, Cyclo[3-[2-[4-(3-methylphenoxy)phenyl]benzoxazol-5-yl]alanyl-3-(2-iminoimidazolidin-4-yl)-seryl-3-(2-iminoimidazolidin-4-yl)serylserylglycyl-β-methylphenylalanyl]], the “MIC Enterococcus faecalis (ATCC 29212)” value (Enterococcus sp.; strain ATCC 29212) is reported as 64 µg/mL (≈ 63 µM), the “MIC Enterococcus faecalis (GC 2242)” value (Enterococcus sp.; strain GC 2242) is reported as 64 µg/mL (≈ 63 µM) and the “MIC Enterococcus faecium (GC 2243)” value (Enterococcus sp.; strain GC 2243) is reported as 64 µg/mL (≈ 63 µM). For the same compound, the “MIC Enterococcus faecalis (GC 2691)” value (Enterococcus sp.; strain GC 2691) was 64 µg/mL (≈ 63 µM), the “MIC Enterococcus faecalis (GC 3059)” value (Enterococcus sp.; strain GC 3059) was >64 µg/mL and the “MIC Enterococcus faecalis (GC 4552)” value (Enterococcus sp.; strain GC 4552) was 64 µg/mL (≈ 63 µM). For the same compound, the “MIC Enterococcus faecalis (GC 4553)” value (Enterococcus sp.; strain GC 4553) was 64 µg/mL (≈ 63 µM), the “MIC Enterococcus faecalis (GC 4554)” value (Enterococcus sp.; strain GC 4554) was 64 µg/mL (≈ 63 µM) and the “MIC Enterococcus faecium (GC 4556)” value (Enterococcus sp.; strain GC 4556) was 32 µg/mL (≈ 31.5 µM). For the same compound, the “MIC Enterococcus faecium (GC 4557)” value (Enterococcus sp.; strain GC 4557) was 64 µg/mL (≈ 63 µM), the “MIC Enterococcus avium (GC 4558)” value (Enterococcus sp.; strain GC 4558) was 64 µg/mL (≈ 63 µM) and the “MIC Enterococcus faecalis (GC 6189)” value (Enterococcus sp.; strain GC 6189) was >64 µg/mL. The MIC (Enterococcus sp.; strain ATCC 29212, read-out: MIC Enterococcus faecalis (ATCC 29212)) was 64 µg/mL (≈ 63 µM), the MIC (Enterococcus sp.; strain GC 2242, read-out: MIC Enterococcus faecalis (GC 2242)) was 64 µg/mL (≈ 63 µM) and the MIC (Enterococcus sp.; strain GC 2243, read-out: MIC Enterococcus faecium (GC 2243)) was 64 µg/mL (≈ 63 µM). The MIC (Enterococcus sp.; strain GC 2691, read-out: MIC Enterococcus faecalis (GC 2691)) was 64 µg/mL (≈ 63 µM), the MIC (Enterococcus sp.; strain GC 3059, read-out: MIC Enterococcus faecalis (GC 3059)) was > 64 µg/mL and the MIC (Enterococcus sp.; strain GC 4552, read-out: MIC Enterococcus faecalis (GC 4552)) was 64 µg/mL (≈ 63 µM). The MIC (Enterococcus sp.; strain GC 4553, read-out: MIC Enterococcus faecalis (GC 4553)) was 64 µg/mL (≈ 63 µM), the MIC (Enterococcus sp.; strain GC 4554, read-out: MIC Enterococcus faecalis (GC 4554)) was 64 µg/mL (≈ 63 µM) and the MIC (Enterococcus sp.; strain GC 4556, read-out: MIC Enterococcus faecium (GC 4556)) was 32 µg/mL (≈ 31.5 µM). For the same compound, the MIC (Enterococcus sp.; strain GC 4557, read-out: MIC Enterococcus faecium (GC 4557)) was 64 µg/mL (≈ 63 µM), the MIC (Enterococcus sp.; strain GC 4558, read-out: MIC Enterococcus avium (GC 4558)) was 64 µg/mL (≈ 63 µM) and the MIC (Enterococcus sp.; strain GC 6189, read-out: MIC Enterococcus faecalis (GC 6189)) was > 64 µg/mL. For the same compound, the MIC (Staphylococcus sp.; Staphylococcus, strain GC 4543, read-out: MIC Staphylococcus aureus-SMITH (GC 4543)) was > 64 µg/mL, the MIC (Staphylococcus sp.; Staphylococcus, strain GC 4547, read-out: MIC Coagulase Negative Staphylococcus (GC 4547)) was 64 µg/mL (≈ 63 µM) and the MIC (Staphylococcus sp.; Staphylococcus, strain GC 4548, read-out: MIC Coagulase Negative Staphylococcus (GC 4548)) was > 64 µg/mL. The MIC (Staphylococcus sp.; Staphylococcus, strain GC 4549, read-out: MIC Coagulase Negative Staphylococcus (GC 4549)) was 32 µg/mL (≈ 31.5 µM), the MIC (Staphylococcus sp.; Staphylococcus, strain GC 4551, read-out: MIC Coagulase Negative Staphylococcus (GC 4551)) was 64 µg/mL (≈ 63 µM) and the MIC (Staphylococcus sp.; strain ATCC 29213, read-out: MIC Staphylococcus aureus (ATCC 29213)) was > 64 µg/mL. The MIC (Staphylococcus sp.; strain GC 1131, read-out: MIC Staphylococcus aureus (GC 1131)) was > 64 µg/mL, the MIC (Staphylococcus sp.; strain GC 3051, read-out: MIC Staphylococcus aureus (GC 3051)) was > 64 µg/mL and the MIC (Staphylococcus sp.; strain GC 3053, read-out: MIC Staphylococcus aureus (GC 3053)) was > 64 µg/mL. For the same compound, the MIC (Staphylococcus sp.; strain GC 4541, read-out: MIC Staphylococcus aureus (GC 4541)) was > 64 µg/mL, the MIC (Staphylococcus sp.; strain GC 4542, read-out: MIC Staphylococcus aureus (GC 4542)) was > 64 µg/mL and the MIC (Staphylococcus sp.; strain GC 4544, read-out: MIC Staphylococcus aureus (GC 4544)) was > 64 µg/mL. The MIC (Staphylococcus sp.; strain GC 4545, read-out: MIC Staphylococcus aureus (GC 4545)) was > 64 µg/mL, the “MIC Staphylococcus aureus (ATCC 29213)” value (Staphylococcus sp.; strain ATCC 29213) was >64 µg/mL and the “MIC Staphylococcus aureus (GC 3051)” value (Staphylococcus sp.; strain GC 3051) was >64 µg/mL. The “MIC Staphylococcus aureus (GC 3053)” value (Staphylococcus sp.; strain GC 3053) was >64 µg/mL, the “MIC Staphylococcus aureus (GC 4541)” value (Staphylococcus sp.; strain GC 4541) was >64 µg/mL and the “MIC Staphylococcus aureus (GC 4542)” value (Staphylococcus sp.; strain GC 4542) was >64 µg/mL. The “MIC Staphylococcus aureus (GC 4544)” value (Staphylococcus sp.; strain GC 4544) was >64 µg/mL, the “MIC Staphylococcus aureus (GC 4545)” value (Staphylococcus sp.; strain GC 4545) was >64 µg/mL and the MIC (Staphylococcus sp.; strain GC 4546, read-out: MIC Staphylococcus haemolyticus (GC 4546)) was 64 µg/mL (≈ 63 µM). The “MIC Streptococcus pneumoniae (ATCC 6301)” value (Streptococcus sp.; strain ATCC 6301) was 64 µg/mL (≈ 63 µM), the “MIC Streptococcus pneumoniae (GC 1894)” value (Streptococcus sp.; strain GC 1894) was 64 µg/mL (≈ 63 µM) and the “MIC Streptococcus pyogenes (GC 4563)” value (Streptococcus sp.; strain GC 4563) was 32 µg/mL (≈ 31.5 µM). For the same compound, the “MIC Streptococcus agalactiae (GC 4564)” value (Streptococcus sp.; strain GC 4564) was 64 µg/mL (≈ 63 µM), the “MIC Streptococcus pneumoniae (GC 4565)” value (Streptococcus sp.; strain GC 4565) was >64 µg/mL and the MIC (Streptococcus sp.; strain ATCC 6301, read-out: MIC Streptococcus pneumoniae (ATCC 6301)) was 64 µg/mL (≈ 63 µM). The MIC (Streptococcus sp.; strain GC 1894, read-out: MIC Streptococcus pneumoniae (GC 1894)) was 64 µg/mL (≈ 63 µM), the MIC (Streptococcus sp.; strain GC 4563, read-out: MIC Streptococcus pyogenes (GC 4563)) was 32 µg/mL (≈ 31.5 µM) and the MIC (Streptococcus sp.; strain GC 4564, read-out: MIC Streptococcus agalactiae (GC 4564)) was 64 µg/mL (≈ 63 µM). For the same compound, the MIC (Streptococcus sp.; strain GC 4565, read-out: MIC Streptococcus pneumoniae (GC 4565)) was > 64 µg/mL, the MIC (Escherichia coli; ATCC25922, strain ATCC 25922, read-out: MIC Escherichia coli (ATCC 25922)) was > 64 µg/mL and the MIC (Escherichia coli; strain GC 4559, read-out: MIC Escherichia coli (GC 4559)) was > 64 µg/mL. The MIC (Escherichia coli; strain GC 4560, read-out: MIC Escherichia coli (GC 4560)) was > 64 µg/mL.
